Test [1] has as its target Acidic phospholipase A2 2 (Naja naja, UniProt P15445). The test can be described thus: Inhibition of Naja Naja PLA2.
For test [2], the target named is Acidic phospholipase A2 2 (Naja naja) (UniProt P15445). The settings on record: 1.3 nM.
Description: Inhibition of Naja Naja PLA2 at 1.3 nM
Test [3] relates to Mus musculus. The experiment in a line: Antiinflammatory activity against Arachidonic acid-induced ear edema in Swiss mouse assessed as reduction in ear thickness at 2 mg/ear. The format is functional. Also noted: scale not given: the % may be the effect or the level left.
The target in test [4] is Acidic phospholipase A2 2 (Naja naja) (UniProt P15445). The experiment in a line: Inhibition of Naja Naja PLA2 at […].
In test [5] the test system is Mus musculus. The test can be described thus: Antiinflammatory activity against TPA-induced ear edema in Swiss mouse assessed as reduction in ear thickness at 0.05 mg/ear after 10 days. Also noted: scale not given: the % may be the effect or the level left. The format is functional.
Test [6] is filed under the species Mus musculus. The experiment in a line: Effect on oxazolone-induced delayed type hypersensitivity in Swiss mouse assessed as reduction in ear thickness at 0.05 mg/ear after 24 hrs. The format is functional. Also on record: scale not given: the % may be the effect or the level left.
The species named for test [7] is Mus musculus. The experiment in a line: Effect on oxazolone-induced delayed type hypersensitivity in Swiss mouse assessed as reduction in ear thickness at 0.05 mg/ear after 48 hrs. The format is functional. Also on record: scale not given: the % may be the effect or the level left.
Test [8] is filed under the species Mus musculus. The test can be described thus: Effect on oxazolone-induced delayed type hypersensitivity in Swiss mouse assessed as reduction in ear thickness at 0.05 mg/ear after 72 hrs. The format is functional. Also on record: scale not given: the % may be the effect or the level left.
The species named for test [9] is Mus musculus. The experiment in a line: Effect on oxazolone-induced delayed type hypersensitivity in Swiss mouse assessed as reduction in ear thickness at 0.05 mg/ear after 96 hrs. In kind it is functional. Also noted: scale not given: the % may be the effect or the level left.
For test [10], the species on record is Mus musculus. The experiment in a line: Effect on oxazolone-induced delayed type hypersensitivity in Swiss mouse assessed as reduction in ear thickness at 0.05 mg/ear after 102 hrs. In kind it is functional. Also on record: scale not given: the % may be the effect or the level left.

Sequence of Acidic phospholipase A2 2 (P15445 whole entry): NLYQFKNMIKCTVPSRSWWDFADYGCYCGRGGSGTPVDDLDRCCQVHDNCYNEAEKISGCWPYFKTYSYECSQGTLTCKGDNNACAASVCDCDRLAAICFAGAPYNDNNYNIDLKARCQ
Sequence of Acidic phospholipase A2 2 (Naja naja) (P15445 whole entry): as above

On to `C[C@@H]1O[C@@H](O[C@H]2[C@H](OC(=O)[C@]34CCC(C)(C)C[C@H]3C3=CC[C@@H]5[C@@]6(C)C[C@H](O)[C@H](O[C@@H]7O[C@H](C(=O)O)[C@@H](O)[C@H](O)[C@H]7O)[C@@](C)(C(=O)O)[C@@H]6CC[C@@]5(C)[C@]3(C)C[C@H]4O)O[C@@H](C)[C@H](O)[C@H]2O)[C@H](O)[C@H](O)[C@H]1O` [ZANHASAPONIN A], for which, in [1], the midpoint of inhibition, the IC50, lay at 470 µM.

For the molecule `CO[C@H]1[C@H](O)[C@@H](O)[C@H](O)[C@H](O)[C@H]1O`, the inhibition in test [2] stood at 45%.

In the case of `CC(Cc1ccc(O)c(O)c1)C(C)Cc1ccc(O)c(O)c1` (configuration not stated) [NORDIHYDROGUAIARETIC ACID], in the test on Mus musculus [3], the Activity turned out to be 50%.

`CO[C@H]1[C@H](O)[C@@H](O)[C@@H](O)[C@H](O)[C@@H]1O` [METHYLINOSITOL]: the concentration for half-maximal inhibition (IC50) in test [1] is 1920 µM.

Regarding `C[C@@H]1O[C@@H](O[C@H]2[C@H](OC(=O)[C@]34CCC(C)(C)C[C@H]3C3=CC[C@@H]5[C@@]6(C)C[C@H](O)[C@H](O[C@@H]7O[C@H](C(=O)O)[C@@H](O)[C@H](O)[C@H]7O)[C@@](C)(C(=O)O)[C@@H]6CC[C@@]5(C)[C@]3(C)C[C@H]4O)O[C@@H](C)[C@H](O)[C@H]2O)[C@H](O[C@@H]2OC[C@@H](O)[C@H](O[C@@H]3OC[C@@H](O)[C@H](O)[C@H]3O)[C@H]2O)[C@H](O)[C@H]1O`, the inhibition in test [4] was found to be 30%.

As for `C[C@@H]1C[C@H]2[C@@H]3CCC4=CC(=O)C=C[C@]4(C)[C@@]3(F)[C@@H](O)C[C@]2(C)[C@@]1(O)C(=O)CO` [DEXAMETHASONE], the Activity turned out to be 81% with Mus musculus [5]; 76% in the test filed under Mus musculus [6]; 89% in the test filed under Mus musculus [7]; 93% in the test listed under Mus musculus [8]; 81% in the test listed under Mus musculus [9]; 84% in the test listed under Mus musculus [10].

`C[C@@H]1O[C@@H](O[C@H]2[C@H](OC(=O)[C@]34CCC(C)(C)C[C@H]3C3=CC[C@@H]5[C@@]6(C)C[C@H](O)[C@H](O[C@@H]7O[C@H](C(=O)O)[C@@H](O)[C@H](O)[C@H]7O)[C@@](C)(C(=O)O)[C@@H]6CC[C@@]5(C)[C@]3(C)C[C@H]4O)O[C@@H](C)[C@H](O)[C@H]2O)[C@H](O[C@@H]2OC[C@@H](O)[C@H](O)[C@H]2O)[C@H](O)[C@H]1O` [ZANHASAPONIN B] registered a half-maximal inhibitory concentration (IC50) in [1] of 440 µM.

Broadly, the IC50 is the concentration at which inhibition is half-maximal. By inhibition is commonly meant the change of the read-out against control, counted positive when it falls.

Values taken from ChEMBL document CHEMBL1158861, “Zanhasaponins A and B, antiphospholipase A2 saponins from an antiinflammatory extract of Zanha africana root bark” (J Nat Prod, 1997).
